PMC8893300, “A Dynamic Mass Redistribution Assay for the Human Sweet Taste Receptor Uncovers G-Protein Dependent Biased Ligands” (Frontiers in Pharmacology, 2022)
Where two headings read alike, the source gives them in different places. Marks after values point to notes of the source that are not given here.

Target: T1, human sweet taste receptor (hT1R2/hT1R3) (Homo sapiens, UniProt Q7RTX0+Q8TE23)
T1 construct: expressed in transfected cells
T1 sequence (Q8TE23 20-839): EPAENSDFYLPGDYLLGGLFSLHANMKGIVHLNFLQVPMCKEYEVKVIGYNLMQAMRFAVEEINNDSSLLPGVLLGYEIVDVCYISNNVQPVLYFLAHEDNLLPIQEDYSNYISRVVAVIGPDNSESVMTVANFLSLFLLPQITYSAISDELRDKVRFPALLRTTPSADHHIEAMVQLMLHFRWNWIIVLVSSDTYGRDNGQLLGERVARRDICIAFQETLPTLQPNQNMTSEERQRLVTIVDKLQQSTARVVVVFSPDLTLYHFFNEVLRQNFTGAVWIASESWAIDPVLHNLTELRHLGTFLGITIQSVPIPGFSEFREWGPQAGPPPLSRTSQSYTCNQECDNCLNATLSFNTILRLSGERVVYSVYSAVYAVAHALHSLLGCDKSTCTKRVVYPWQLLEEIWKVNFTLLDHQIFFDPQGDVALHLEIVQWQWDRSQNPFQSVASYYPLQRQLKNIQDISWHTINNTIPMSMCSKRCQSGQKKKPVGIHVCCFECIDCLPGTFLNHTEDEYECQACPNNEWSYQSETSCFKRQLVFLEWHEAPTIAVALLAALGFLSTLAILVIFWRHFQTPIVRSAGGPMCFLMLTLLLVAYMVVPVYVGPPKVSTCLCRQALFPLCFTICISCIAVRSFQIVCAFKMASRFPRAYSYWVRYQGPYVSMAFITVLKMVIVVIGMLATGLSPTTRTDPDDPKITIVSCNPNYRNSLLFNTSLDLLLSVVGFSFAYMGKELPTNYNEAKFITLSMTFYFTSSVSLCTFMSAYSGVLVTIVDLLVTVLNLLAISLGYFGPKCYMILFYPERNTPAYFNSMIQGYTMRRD
T1 sequence (Q7RTX0 21-852): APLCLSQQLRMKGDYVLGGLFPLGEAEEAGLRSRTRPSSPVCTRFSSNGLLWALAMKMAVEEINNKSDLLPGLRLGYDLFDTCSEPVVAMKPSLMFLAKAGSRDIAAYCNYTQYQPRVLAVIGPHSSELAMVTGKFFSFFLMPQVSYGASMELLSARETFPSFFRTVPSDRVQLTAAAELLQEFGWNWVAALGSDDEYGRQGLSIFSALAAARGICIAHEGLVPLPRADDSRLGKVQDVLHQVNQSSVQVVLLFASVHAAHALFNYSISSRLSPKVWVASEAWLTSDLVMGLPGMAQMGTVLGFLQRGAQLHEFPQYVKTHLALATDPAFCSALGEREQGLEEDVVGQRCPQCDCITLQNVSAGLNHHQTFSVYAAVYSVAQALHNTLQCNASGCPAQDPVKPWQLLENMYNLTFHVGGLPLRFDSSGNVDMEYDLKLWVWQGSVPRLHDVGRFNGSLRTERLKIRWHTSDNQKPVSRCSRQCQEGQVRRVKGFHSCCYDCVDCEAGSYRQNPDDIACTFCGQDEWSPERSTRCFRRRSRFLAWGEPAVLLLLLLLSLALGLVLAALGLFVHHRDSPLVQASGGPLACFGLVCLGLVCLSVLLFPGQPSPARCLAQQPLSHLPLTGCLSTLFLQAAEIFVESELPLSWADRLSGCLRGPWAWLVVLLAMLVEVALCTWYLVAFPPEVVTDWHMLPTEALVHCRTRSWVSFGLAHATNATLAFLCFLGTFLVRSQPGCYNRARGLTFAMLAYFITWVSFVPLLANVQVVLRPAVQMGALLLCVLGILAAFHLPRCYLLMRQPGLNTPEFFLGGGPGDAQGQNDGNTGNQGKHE
Assay: DMR assay (Epic reader) on R2/R3 U2OS cells, endogenous G proteins
Assay type: cell-based
Details: for EC50: R2/R3 U2OS cells, peak DMR response; for ΔlogR DMR Mean: Table 2, operational model, logR minus sucralose logR; for Activity in DMR assay Emax: top asymptote of dose-response normalized to 1 mM sucralose
Procedure: The plates were incubated in the tissue culture hood for 20 min to allow cells to settle evenly at the bottom of the microplate and further cultured at 37°C in an atmosphere of 5% CO2 for 18–24 h. The next day, the cells were subjected to functional analysis using DMR. […] When indicated, data for agonist dose-responses were normalized to data obtained with a maximum concentration of sucralose (1 mM) and then fitted and plotted using GraphPad Prism (San Diego, CA) and non-linear regression analysis.
This value, that we termed pEC50Ratio (sucralose) or pEC50R (sucralose), was calculated with EC50 values obtained in the two assay systems. This transformation also allowed determination of an average and a standard error for the pEC50R (sucralose). The two sets of data (DMR and FLIPR data) were then analyzed with an un-paired t-test (α = 0.05). To calculate relative efficacy bias between the two assays, we captured the top asymptote value from each activity-normalized dose-response curve, as provided by the curve fit, calculated an average and a standard deviation (sd) for each agonist and then analyzed the data pairs with an un-paired t-test (α = 0.05). […] The following steps were followed: 1) Using the PRISM software, we re-analyzed each ligand’s dose-response data obtained in each assay with non-linear regression and the users-defined equation “New Operational Model with TauKa ratios” and retrieved logR values from the fits. 2) Subtracted each ligand’s logR value with that of our standard, the sucralose logR value, obtained from the same data set (each ligand dose-response assay data used in this analysis was accompanied with a sucralose dose-response ran on the same day), producing the ΔlogR value for leach ligand in each assay. 3) Calculated the mean and SEM from ΔlogR replicates (from three to nine independent dose-response analysis, in the two different assays). 4) Calculated ΔΔlogR values by subtracting the averaged ligands’ ΔlogR FLIPR values with the averaged ligands’ ΔlogR DMR values.

[1] = read-out: Activity in DMR assay EC50
[2] = read-out: Activity in DMR assay pEC50 (converted)

EC50 [1] [nM]	EC50 [2] [nM]	ΔlogR DMR Mean	Activity in DMR assay Emax	SMILES
7700	7290	1.15	99*	COC(=O)[C@H](Cc1ccccc1)NC(=O)[C@H](CC(=O)O)NCCC(C)(C)C [Neotame]
700	637	2.52	143*	CC(C)Oc1ccc(NC(=S)NCc2ccc[nH]2)cc1 [S819]
2200	2070	1.84	128	CC(C)Oc1ccc(NC(=S)NCc2cccs2)cc1 [S5227]
